The text below walks through data of ChEMBL document CHEMBL2203242, “A regio- and stereoselective 1,3-dipolar cycloaddition for the synthesis of new-fangled dispiropyrrolothiazoles as antimycobacterial agents” (Bioorg Med Chem Lett, 2012).

Molecules are shown by their SMILES. Converted amounts (≈) assume the structure as drawn.

The assay concerns Mycobacterium tuberculosis. The assay can be described thus: Antimycobacterial activity against isoniazid-resistant Mycobacterium tuberculosis by agar dilution method. In kind it is functional. (In general: In agar dilution, organisms are placed on agar that contains the substance at set levels.)
Regarding `NNC(=O)c1ccncc1` [ISONIAZID], the MIC90 (commonly the lowest concentration that inhibits either 90% of growth or 90% of the strains tested, depending on the study) amounted to 11.2 µM (≈ 1.54 µg/mL). The result for `COc1cc2c(cc1OC)C(=O)[C@]1(C2)[C@@H](c2ccccc2Cl)[C@@H]2CSCN2[C@@]12C(=O)N(N1CCOCC1)c1ccccc12` reads 18.3 µM (≈ 11.3 µg/mL). In turn, `COc1cc2c(cc1OC)C(=O)[C@]1(C2)[C@@H](c2ccccc2)[C@@H]2CSCN2[C@@]12C(=O)Nc1ccc(OC(F)(F)F)cc12` registered an MIC90 above 6.25 µM. The same measure for `COc1cc2c(cc1OC)C(=O)[C@]1(C2)[C@@H](c2ccc(F)cc2)[C@@H]2CSCN2[C@@]12C(=O)N(N1CCOCC1)c1ccccc12`: 35.1 µM (≈ 21.1 µg/mL); for `COc1ccc([C@H]2[C@@H]3CSCN3[C@@]3(C(=O)Nc4ccc(OC(F)(F)F)cc43)[C@@]23Cc2cc(OC)c(OC)cc2C3=O)cc1OC`: 22.2 µM (≈ 14.3 µg/mL); for `COc1cc2c(cc1OC)C(=O)[C@]1(C2)[C@@H](c2ccc(F)cc2)[C@@H]2CSCN2[C@@]12C(=O)Nc1ccc(OC(F)(F)F)cc12`: 16.6 µM (≈ 9.99 µg/mL).

Consider `COc1cc2c(cc1OC)C(=O)[C@]1(C2)[C@@H](c2ccccc2)[C@@H]2CSCN2[C@@]12C(=O)N(N1CCOCC1)c1ccccc12`, for which the MIC90 was above 6.25 µM. `COc1ccc([C@H]2[C@@H]3CSCN3[C@@]3(C(=O)N(N4CCOCC4)c4ccccc43)[C@@]23Cc2cc(OC)c(OC)cc2C3=O)cc1OC`: the MIC90 was 24.2 µM (≈ 15.6 µg/mL). As for `COc1cc2c(cc1OC)C(=O)[C@]1(C2)[C@@H](c2ccccc2Cl)[C@@H]2CSCN2[C@@]12C(=O)Nc1ccc(OC(F)(F)F)cc12`, the MIC90 was 36.4 µM (≈ 22.5 µg/mL).
